Like-named read-outs stand apart in the source and are kept apart here.
Legend:
EGFR del19 = EGFR del19 (Homo sapiens (Human), UniProt P00533, DEL746-750); assay: HTRF enzyme assay, EGFR del19; assay type: biochemical; conditions: recombinant enzyme
Experimental: (§1) The measurement of an activity on wild-type and EGFR mutation enzyme of the compound of the present invention was experimented by utilizing the HTRF system sold by Cisbio, as follow.
(§2) The composition of the assay buffer used in the activity measurement was 50 mM Tris-HCl pH 7.5, 100 mM NaCl, 7.5 mM MgCl2, 3 mM KCl, 0.01% Tween 20, 0.1% BSA, 1 mM DTT. The enzymatic reaction was carried out hereto by using the peptide substrate labeled with ATP of […] concentration and biotin of […] concentration. The analysis of an EGFR activity inhibitory effect of the compound was carried out in accordance with the analysis reaction recipe below.
(§3) Component 1: […] of EGFR wild-type or mutation enzyme
(§4) Component 2: […] of compound solution
(§5) Component 3: […] of peptide labeled with ATP and biotin
(§6) The enzymatic reaction was initiated by mixing Component 1 and Component 2 first, and then, adding component 3. After the reaction for 2 hours at 37° C., […] of a measurement solution consisting of streptavidin-XL665 provided by Cisbio and anti-phosphotyrosine antibody labeled with europium was added to the enzymatic reaction solution and reacted for 1 hour at ambient temperature. […] The measurement values measured at the seven concentrations of the compound were analyzed by using the Prism program (version 5.01, Graphpad Software, Inc.), and IC50 value of the compound was calculated, which is an inhibitory ability indicator.

EGFR del19/T790M/C797S = EGFR del19/T790M/C797S (Homo sapiens, UniProt P00533, C797S/DEL746-750/T790M); assay: HTRF enzyme assay, EGFR del19/T790M/C797S; assay type: biochemical
Sequence of EGFR del19/T790M/C797S (P00533 with tags, fused parts or gaps C797S/DEL746-750/T790M limits assumed): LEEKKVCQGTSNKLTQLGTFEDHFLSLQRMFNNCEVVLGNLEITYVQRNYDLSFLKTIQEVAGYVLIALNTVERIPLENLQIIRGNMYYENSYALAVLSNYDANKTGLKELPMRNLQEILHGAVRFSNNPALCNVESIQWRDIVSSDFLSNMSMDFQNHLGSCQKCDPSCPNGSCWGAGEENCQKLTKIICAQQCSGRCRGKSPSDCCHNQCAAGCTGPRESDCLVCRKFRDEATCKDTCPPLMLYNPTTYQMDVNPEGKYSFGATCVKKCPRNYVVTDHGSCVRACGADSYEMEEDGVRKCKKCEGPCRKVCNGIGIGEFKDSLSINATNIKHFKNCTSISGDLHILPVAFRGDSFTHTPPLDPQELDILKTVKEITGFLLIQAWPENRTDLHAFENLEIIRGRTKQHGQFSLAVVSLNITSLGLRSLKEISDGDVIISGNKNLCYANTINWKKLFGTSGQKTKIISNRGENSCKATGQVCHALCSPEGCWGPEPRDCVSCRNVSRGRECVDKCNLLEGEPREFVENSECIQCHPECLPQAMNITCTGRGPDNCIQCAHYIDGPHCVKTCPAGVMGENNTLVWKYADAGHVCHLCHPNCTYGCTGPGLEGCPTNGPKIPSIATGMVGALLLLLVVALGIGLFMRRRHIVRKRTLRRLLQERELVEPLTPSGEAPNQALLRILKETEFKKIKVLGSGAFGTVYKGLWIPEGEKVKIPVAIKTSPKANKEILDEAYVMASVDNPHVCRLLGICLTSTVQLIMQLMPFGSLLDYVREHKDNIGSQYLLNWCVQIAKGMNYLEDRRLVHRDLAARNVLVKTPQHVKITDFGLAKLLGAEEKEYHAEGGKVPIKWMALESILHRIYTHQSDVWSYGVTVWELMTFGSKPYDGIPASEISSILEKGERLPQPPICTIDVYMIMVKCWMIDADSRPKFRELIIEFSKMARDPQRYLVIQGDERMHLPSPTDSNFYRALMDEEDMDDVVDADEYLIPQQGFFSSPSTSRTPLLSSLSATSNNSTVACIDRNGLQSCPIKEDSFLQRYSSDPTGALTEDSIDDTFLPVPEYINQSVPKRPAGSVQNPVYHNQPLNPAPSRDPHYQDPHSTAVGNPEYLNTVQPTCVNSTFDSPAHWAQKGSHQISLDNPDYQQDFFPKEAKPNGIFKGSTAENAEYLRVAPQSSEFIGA
Experimental: as §1, §2, §3, §4, §5, §6

Ba/F3 EGFR wt. cell line = assay: CellTiter-Glo cell viability, Ba/F3 EGFR wild-type; assay type: cell-based; conditions: 72 hours
Experimental: (§7) The measurement of an activity on wild-type and mutation Ba/F3 EGFR cell line of the compound of the present invention was experimented by utilizing the CellTiter-Glo system sold by Promega, as follow. The CellTiter-Glo assay is a method for measuring the ATP present in cells in cell culture conditions to determine the cell viability.
(§8) The analysis of an EGFR inhibitory ability effect of the compound was carried out in accordance with the analysis reaction recipe below.
(§9) After the reaction of 72 hours, the plate treated with the compound was allowed to stand for 30 minutes at ambient temperature, and then, was further treated with 100 μl of the reagent, and was shaked for 10 minutes at ambient temperature. […] The measurement values measured at the eight concentrations of the compound were analyzed by using the Prism program (version 5.01, Graphpad Software, Inc.), and IC50 value of the compound was calculated, which is an inhibitory ability indicator.

[1] = system: Ba/F3 EGFR del19 cell line; assay: CellTiter-Glo cell viability, Ba/F3 EGFR del19; assay type: cell-based; conditions: 72 hours
Experimental: as §7, §8, §9

[2] = system: Ba/F3 EGFR del19/T790M cell line; assay: CellTiter-Glo cell viability, Ba/F3 EGFR del19/T790M; assay type: cell-based; conditions: read-out: Ba/F3 EGFR del19/T790M IC50
Experimental: as §7, §8
After the reaction of 72 hours, the plate treated with the compound was allowed to stand for 30 minutes at ambient temperature, and then, was further treated with 100 μl of the reagent, and was shaked for 10 minutes at ambient temperature.

FLT3(D835H) = FLT3(D835H) (Homo sapiens (Human), UniProt P36888, D835H); assay: KINOMEscan binding, FLT3(D835H)
Experimental: (§10) The inhibitory activity on FLT kinase, such as wild-type FLT1, FLT3, FLT4, and FLT3 mutation forms, FLT3(D835H), FLT3(D835V), FLT3(D835Y), FLT3(ITD), FLT3(ITD,D835V), FLT3(ITD,F691L), FLT3(K663Q), FLT3(N841I), FLT3(R834Q) was measured.
(§11) FLT3 kinase inhibition was carried out by KINOMEscan method (DiscoverX Inc.). KINOMEscan method consists of the following processes. T7 bacteriophage labeled with FLT kinase was cultured by the infection to E. coli derived from BL21. After the infection of E. coli in the condition of 0.4 of MOI (multiplicity of infection), it was cultured for 90 to 150 minutes at 32° C. to lyse E. coli. The cell debris was removed by centrifugation and filtration, and the kinase protein present in the supernatant was secured. Additionally, the kinase protein was labeled with DNA for the qPCR measurement. The magnetic beads labeled with streptavidin were treated with the standard compound labeled with biotin and reacted for 30 minutes. The resulting beads were used as affinity beads for the measurement of a kinase activity. The binding reaction was initiated with mixing a kinase protein, the affinity beads bound with a ligand, and the compound. In this case, the used buffer solution was 20% SeaBlock, 0.17×PBS, 0.05% Tween 20, 6 mM DTT. […] The affinity of the compound to be tested was indirectly measured by Quantifying the eluted kinase by […].

FLT3(D835V) = FLT3(D835V) (Homo sapiens (Human), UniProt P36888, D835V); assay: KINOMEscan binding, FLT3(D835V)
Experimental: as §10, §11

FLT3(ITD, D835V) = FLT3(ITD, D835V) (Homo sapiens, UniProt P36888, D835V/ITD); assay: KINOMEscan binding, FLT3(ITD, D835V)
Experimental: as §10, §11

FLT3(K663Q) = FLT3(K663Q) (Homo sapiens (Human), UniProt P36888, K663Q); assay: KINOMEscan binding, FLT3(K663Q)
Experimental: as §10, §11

FLT3(R834Q) = FLT3(R834Q) (Homo sapiens (Human), UniProt P36888, R834Q); assay: KINOMEscan binding, FLT3(R834Q)
Experimental: as §10, §11

[3] = system: Ba/F3 Del19/T790M/C797S cell line; assay: Relative cell viability alone or in combination with cetuximab; assay type: cell-based; conditions: for viability at 0.03 µM: Mus musculus; for cell viability decreased than brigatinib in combination with cetuximab: combination with 10 μg cetuximab vs 30 nM brigatinib plus cetuximab
Description: In order to confirm a cell activity on Ba/F3 Del19/T790M/C797S cell line when administering the compound according to the present invention in combination with a conventional drug, cetuximab to be used in single therapy or combination therapy with anticancer chemotherapy in metastatic colorectal cancer, metastatic squamous epithelium head and neck cancer and the like was used to evaluate the cell activity according to the combination administration.
Specifically, brigatinib was used as a control drug, and each of 30 nM of brigatinib, 30 nM of the compound of Example 10 according to the present invention, and 15 nM of the compound of Example 11 was administered to Ba/F3 Del19/T790M/C797S cell line in combination with 10 μg of cetuximab, which is a monoclonal antibody.

[4] = BaF3, 30 nM Example 10 or 15 nM Example 11 alone vs 10 μg cetuximab alone, read-out: lower cell viability when administered alone than cetuximab
[5] = BaF3, 30 nM Example 10 or 15 nM Example 11 plus 10 μg cetuximab vs alone, read-out: cell viability decreased when administered in combination with cetuximab than when administered alone

Sequence of EGFR del19 (P00533 other isoform, or with tags, fused parts or gaps del 1-668/del 746-750 limits assumed): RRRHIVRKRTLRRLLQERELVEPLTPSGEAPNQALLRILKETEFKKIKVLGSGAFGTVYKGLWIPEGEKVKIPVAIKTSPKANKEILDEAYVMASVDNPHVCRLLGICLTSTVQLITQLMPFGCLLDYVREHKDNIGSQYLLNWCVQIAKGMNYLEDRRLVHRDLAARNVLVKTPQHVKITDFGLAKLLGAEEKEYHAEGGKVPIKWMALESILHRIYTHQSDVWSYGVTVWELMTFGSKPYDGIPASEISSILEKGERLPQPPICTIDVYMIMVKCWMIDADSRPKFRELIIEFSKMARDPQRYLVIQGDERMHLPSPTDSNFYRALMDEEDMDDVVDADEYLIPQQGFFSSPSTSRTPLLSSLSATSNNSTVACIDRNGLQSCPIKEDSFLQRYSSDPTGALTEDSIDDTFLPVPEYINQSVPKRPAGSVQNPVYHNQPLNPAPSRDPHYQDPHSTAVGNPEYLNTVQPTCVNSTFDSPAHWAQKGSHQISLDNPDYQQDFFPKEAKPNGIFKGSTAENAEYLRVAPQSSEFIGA

Row | Compound | IC50 (EGFR del19) [nM] | IC50 (EGFR del19/T790M/C797S) [nM] | IC50 (Ba/F3 EGFR wt. cell line) [nM] | IC50 [1] [nM] | IC50 ([2]; 72 h) [nM] | Kd (FLT3(D835H)) [nM] | Kd (FLT3(D835V)) [nM] | Kd (FLT3(ITD, D835V)) [nM] | Kd (FLT3(K663Q)) [nM] | Kd (FLT3(R834Q)) [nM] | viability at 0.03 µM [3, 4] [%] | viability at 0.03 µM [3, 5] [%] | cell viability decreased than brigatinib in combination with cetuximab [3] | IC50 (EGFR del19/T790M/C797S; HTRF, recombinant enzyme, read-out: EGFR del19/T790M/C797S IC50) [nM] | IC50 ([2]; CellTiter-Glo, 72 hours) [nM]
1 | COc1cc(N2CCC(N3CCN(C)CC3)CC2)ccc1Nc1ncc(Cl)c(Nc2ccccc2NS(C)(=O)=O)n1 [Example 10, N-(2-((5-chloro-2-((2-methoxy-4-(4-(4-methylpiperazin-1-yl)piperidin-1-yl)phenyl)amino)pyrimidin-4-yl)amino)phenyl)methanesulfonamide] | 0.7 | 0.2 | 1000 | 180 | 99 | 38 | 0.29 | 0.32 | 39 | 33 | ≥ 30 | ≥ 50 | at least 20% | – | –
2 | COc1cc(N2CCC(N(C)C)CC2)ccc1Nc1ncc(Cl)c(Nc2ccccc2NS(C)(=O)=O)n1 [Example 11, N-(2-((5-chloro-2-((4-(4-(dimethylamino)piperidin-1-yl)-2-methoxyphenyl)amino)pyrimidin-4-yl)amino)phenyl)methanesulfonamide] | 7.8 | – | 340 | 4.7 | – | 1.8 | 0.082 | 0.16 | 20 | 19 | ≥ 30 | ≥ 50 | at least 20% | 6 | 31
